Read-outs that look alike come from different tables or passages of the source.

For data set [1], the target named is T1, CaChs2 (Candida albicans, UniProt P30572).
T1 sequence (P30572 1-1009): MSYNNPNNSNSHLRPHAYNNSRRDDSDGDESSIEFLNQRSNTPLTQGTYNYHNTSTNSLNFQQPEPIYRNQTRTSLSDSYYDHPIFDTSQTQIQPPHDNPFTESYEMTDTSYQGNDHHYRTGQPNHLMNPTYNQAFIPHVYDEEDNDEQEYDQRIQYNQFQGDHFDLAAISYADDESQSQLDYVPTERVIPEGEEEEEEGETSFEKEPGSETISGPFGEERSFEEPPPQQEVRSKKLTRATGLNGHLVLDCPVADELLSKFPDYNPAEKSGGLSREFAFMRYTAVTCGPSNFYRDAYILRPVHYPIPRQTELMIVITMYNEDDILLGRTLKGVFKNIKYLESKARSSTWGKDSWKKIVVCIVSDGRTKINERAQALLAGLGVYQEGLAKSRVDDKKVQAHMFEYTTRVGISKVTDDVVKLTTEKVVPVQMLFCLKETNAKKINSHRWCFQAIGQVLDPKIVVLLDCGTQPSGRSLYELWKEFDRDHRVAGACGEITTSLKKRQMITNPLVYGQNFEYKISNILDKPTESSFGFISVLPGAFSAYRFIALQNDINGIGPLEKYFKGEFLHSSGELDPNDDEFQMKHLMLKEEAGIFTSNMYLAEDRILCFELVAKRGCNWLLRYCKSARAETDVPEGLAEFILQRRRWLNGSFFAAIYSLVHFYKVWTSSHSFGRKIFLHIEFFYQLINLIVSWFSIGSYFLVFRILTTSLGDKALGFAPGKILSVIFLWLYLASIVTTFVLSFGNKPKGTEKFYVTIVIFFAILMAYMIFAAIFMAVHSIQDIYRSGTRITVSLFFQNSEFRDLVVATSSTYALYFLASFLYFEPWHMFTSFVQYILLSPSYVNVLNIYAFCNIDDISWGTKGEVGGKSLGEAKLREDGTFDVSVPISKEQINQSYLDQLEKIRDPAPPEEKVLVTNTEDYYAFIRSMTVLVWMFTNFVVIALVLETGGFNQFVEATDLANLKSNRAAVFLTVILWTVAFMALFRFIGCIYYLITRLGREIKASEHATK
Briefly: CaChs2 inhibition assay. Format: biochemical.

A further data set concerns CaChs2 T631A. Briefly: CaChs2 inhibition assay, T631A mutant. Format: biochemical, Candida albicans. The settings on record: alanine mutation of T631.
A further data set addresses CaChs2 WT (Candida albicans, UniProt P30572). Briefly: Isothermal titration calorimetry, CaChs2 WT. It is filed as binding.
The subject of a further data set is CaChs2 W647A. Briefly: Isothermal titration calorimetry, CaChs2 W647A. Format: binding, Candida albicans. The following applies: ITC. On the technique in general: In ITC the heat of successive injections is recorded.
For the next data set, the target named is CaChs2 Q643A (Candida albicans, UniProt P30572, Q643A). Briefly: Isothermal titration calorimetry, CaChs2 Q643A. It is filed as binding. The settings on record: Q643A mutant, ITC.
Another data set relates to C. albicans. The settings on record: against C. albicans; lower end printed as < 0.5; cited from earlier work.
The target of data set [2] is T1, CaChs2. Briefly: CaChs2 activity assay. The settings on record: purified recombinant CaChs2; formation of water-insoluble chitin polymers from UDP-GlcNAc. Format: biochemical.
The data set “cryo-EM structure” deals with the molecule itself. Briefly: cryo-EM structure.

As usually defined, the Ki is the dissociation constant of the complex between target and ligand, obtained from inhibition or displacement. Lower therefore signals a stronger hold on the target. The molecule `NC(=O)OC[C@H](O)[C@@H](O)[C@H](N)C(=O)N[C@H](C(=O)O)[C@H]1O[C@@H](n2cc(C(=O)O)c(=O)[nH]c2=O)[C@H](O)[C@@H]1O` [polyoxin D] returned a Ki on CaChs2 [1] (purified CaChs2) of 3.2 ± 1.4 µM. The “decrease of affinity for polyoxin D, mutant vs WT” value with CaChs2 T631A is listed as “about threefold”.
As a reminder, the Kd is the constant that tells how readily two partners part at equilibrium. Lower therefore signals higher affinity. The term MIC80 denotes an inhibitory concentration at the 80% level, which refers to growth in some studies and to a panel of isolates in others. On to `C[C@@H]([C@H](N)C(=O)N[C@H](C(=O)O)[C@H]1O[C@@H](n2ccc(=O)[nH]c2=O)[C@H](O)[C@@H]1O)[C@H](O)c1ccc(O)cn1` [nikkomycin Z], for which, at CaChs2 [1], affinity was put at a Ki of 1.5 ± 0.5 µM. The “difference between Ki of the inhibitor and Km of UDP-GlcNAc” value at CaChs2 [1] (affinity of nikkomycin Z to CaChs2 compared with UDP-GlcNAc) was “three orders of magnitude”. Also, the Kd on CaChs2 WT was about 0.19 µM. In addition, the “reduction of affinity to nikkomycin Z, mutant vs WT” value in the data set on CaChs2 W647A was “about 18 fold”. Moreover, on CaChs2 Q643A, the “effect of the mutation on affinity to nikkomycin Z” value is “only moderately affects the affinity”. Moreover, in the data set on C. albicans, the MIC80 was 0.5 to 32 mg/L.
Usually Km stands for the concentration of substrate that gives half-maximal velocity. Consider `CC(=O)N[C@H]1[C@@H](OP(=O)(O)OP(=O)(O)OC[C@H]2O[C@@H](n3ccc(=O)[nH]c3=O)[C@H](O)[C@@H]2O)O[C@H](CO)[C@@H](O)[C@@H]1O` [UDP-GlcNAc], for which, at CaChs2 [2], the Km amounted to 6 ± 0.7 mM and the kcat was determined as 8.6 ± 2.7 min−[1].

B1: Chs2 from Candida albicans (CaChs2), wild type (enzyme, UniProt P30572 1-1009, looked up)
chain: MSYNNPNNSNSHLRPHAYNNSRRDDSDGDESSIEFLNQRSNTPLTQGTYNYHNTSTNSLNFQQPEPIYRNQTRTSLSDSYYDHPIFDTSQTQIQPPHDNPFTESYEMTDTSYQGNDHHYRTGQPNHLMNPTYNQAFIPHVYDEEDNDEQEYDQRIQYNQFQGDHFDLAAISYADDESQSQLDYVPTERVIPEGEEEEEEGETSFEKEPGSETISGPFGEERSFEEPPPQQEVRSKKLTRATGLNGHLVLDCPVADELLSKFPDYNPAEKSGGLSREFAFMRYTAVTCGPSNFYRDAYILRPVHYPIPRQTELMIVITMYNEDDILLGRTLKGVFKNIKYLESKARSSTWGKDSWKKIVVCIVSDGRTKINERAQALLAGLGVYQEGLAKSRVDDKKVQAHMFEYTTRVGISKVTDDVVKLTTEKVVPVQMLFCLKETNAKKINSHRWCFQAIGQVLDPKIVVLLDCGTQPSGRSLYELWKEFDRDHRVAGACGEITTSLKKRQMITNPLVYGQNFEYKISNILDKPTESSFGFISVLPGAFSAYRFIALQNDINGIGPLEKYFKGEFLHSSGELDPNDDEFQMKHLMLKEEAGIFTSNMYLAEDRILCFELVAKRGCNWLLRYCKSARAETDVPEGLAEFILQRRRWLNGSFFAAIYSLVHFYKVWTSSHSFGRKIFLHIEFFYQLINLIVSWFSIGSYFLVFRILTTSLGDKALGFAPGKILSVIFLWLYLASIVTTFVLSFGNKPKGTEKFYVTIVIFFAILMAYMIFAAIFMAVHSIQDIYRSGTRITVSLFFQNSEFRDLVVATSSTYALYFLASFLYFEPWHMFTSFVQYILLSPSYVNVLNIYAFCNIDDISWGTKGEVGGKSLGEAKLREDGTFDVSVPISKEQINQSYLDQLEKIRDPAPPEEKVLVTNTEDYYAFIRSMTVLVWMFTNFVVIALVLETGGFNQFVEATDLANLKSNRAAVFLTVILWTVAFMALFRFIGCIYYLITRLGREIKASEHATK
By stoichiometry N is commonly meant the number of molecules, sites or subunits per partner or assembly. With B1, the “stoichiometry N” value in the data set “cryo-EM structure” worked out at 2.

(Values after PMC9359617 (Nature structural & molecular biology, 2022).)
